Numbers after ± are expanded uncertainties.
Conditions: Liquid, Vibrating tube method

CCCC(=O)OCC(COC(=O)CCC)(COC(=O)CCC)COC(=O)CCC [pentaerythritol tetrabutyrate]
Conditions | mass density [kg/m3]
283.15 K, 30442 kPa | 1076 ± 1.3
283.15 K, 30478 kPa | 1076.1 ± 1.3
283.15 K, 30509 kPa | 1076 ± 1.3
283.15 K, 30540 kPa | 1076.1 ± 1.3
283.15 K, 30577 kPa | 1076.1 ± 1.3
283.15 K, 30608 kPa | 1076.1 ± 1.3
283.15 K, 30639 kPa | 1076.1 ± 1.3
283.15 K, 30670 kPa | 1076.1 ± 1.3
283.15 K, 30707 kPa | 1076.1 ± 1.3
283.15 K, 30738 kPa | 1076.1 ± 1.3
283.15 K, 30775 kPa | 1076.2 ± 1.3
283.15 K, 30806 kPa | 1076.3 ± 1.3
283.15 K, 30838 kPa | 1076.2 ± 1.3
283.15 K, 30875 kPa | 1076.1 ± 1.3
283.15 K, 30906 kPa | 1076.2 ± 1.3
283.15 K, 30938 kPa | 1076.3 ± 1.3
283.15 K, 30975 kPa | 1076.3 ± 1.3
283.15 K, 31008 kPa | 1076.3 ± 1.3
283.15 K, 31040 kPa | 1076.3 ± 1.3
283.15 K, 31071 kPa | 1076.3 ± 1.3
283.15 K, 31110 kPa | 1076.4 ± 1.3
283.15 K, 31141 kPa | 1076.4 ± 1.3
283.15 K, 31179 kPa | 1076.4 ± 1.3
283.15 K, 31211 kPa | 1076.3 ± 1.3
283.15 K, 31243 kPa | 1076.4 ± 1.3
283.15 K, 31282 kPa | 1076.4 ± 1.3
283.15 K, 31314 kPa | 1076.4 ± 1.3
283.15 K, 31346 kPa | 1076.4 ± 1.3
283.15 K, 31385 kPa | 1076.5 ± 1.3
283.15 K, 31418 kPa | 1076.6 ± 1.3
283.15 K, 31450 kPa | 1076.4 ± 1.3
283.15 K, 31490 kPa | 1076.5 ± 1.3
283.15 K, 31523 kPa | 1076.5 ± 1.3
283.15 K, 31556 kPa | 1076.5 ± 1.3
283.15 K, 31595 kPa | 1076.5 ± 1.3
283.15 K, 31628 kPa | 1076.7 ± 1.3
283.15 K, 31662 kPa | 1076.7 ± 1.3
283.15 K, 31695 kPa | 1076.6 ± 1.3
283.15 K, 31735 kPa | 1076.6 ± 1.3
283.15 K, 31768 kPa | 1076.7 ± 1.3
283.15 K, 31807 kPa | 1076.7 ± 1.3
283.15 K, 31841 kPa | 1076.9 ± 1.3
283.15 K, 31875 kPa | 1076.7 ± 1.3
283.15 K, 31909 kPa | 1076.8 ± 1.3
283.15 K, 31949 kPa | 1076.8 ± 1.3
283.15 K, 31983 kPa | 1076.9 ± 1.3
283.15 K, 32023 kPa | 1076.9 ± 1.3
283.15 K, 32057 kPa | 1076.8 ± 1.3
283.15 K, 32092 kPa | 1076.8 ± 1.3
283.15 K, 32133 kPa | 1076.8 ± 1.3
283.15 K, 32167 kPa | 1076.9 ± 1.3
283.15 K, 32202 kPa | 1076.9 ± 1.3
283.15 K, 32236 kPa | 1076.9 ± 1.3
283.15 K, 32278 kPa | 1077 ± 1.3
283.15 K, 32312 kPa | 1076.9 ± 1.3
283.15 K, 32347 kPa | 1077 ± 1.3
283.15 K, 32390 kPa | 1077 ± 1.3
283.15 K, 32417 kPa | 1077.1 ± 1.3
283.15 K, 32453 kPa | 1077.1 ± 1.3
283.15 K, 32494 kPa | 1077.2 ± 1.3
283.15 K, 32536 kPa | 1077.1 ± 1.3
283.15 K, 32572 kPa | 1077.1 ± 1.3
283.15 K, 32614 kPa | 1077.1 ± 1.3
283.15 K, 32650 kPa | 1077 ± 1.3
283.15 K, 32692 kPa | 1077.2 ± 1.3
283.15 K, 32728 kPa | 1077.1 ± 1.3
283.15 K, 32764 kPa | 1077.2 ± 1.3
283.15 K, 32806 kPa | 1077.1 ± 1.3
283.15 K, 32845 kPa | 1077.2 ± 1.3
283.15 K, 32881 kPa | 1077.2 ± 1.3
283.15 K, 32918 kPa | 1077.2 ± 1.3
283.15 K, 32954 kPa | 1077.3 ± 1.3
283.15 K, 32998 kPa | 1077.3 ± 1.3
283.15 K, 33034 kPa | 1077.2 ± 1.3
283.15 K, 33071 kPa | 1077.4 ± 1.3
283.15 K, 33114 kPa | 1077.3 ± 1.4
283.15 K, 33151 kPa | 1077.4 ± 1.4
283.15 K, 33188 kPa | 1077.3 ± 1.3
283.15 K, 33232 kPa | 1077.5 ± 1.4
283.15 K, 33270 kPa | 1077.5 ± 1.4
283.15 K, 33308 kPa | 1077.4 ± 1.4
283.15 K, 33355 kPa | 1077.6 ± 1.4
283.15 K, 33391 kPa | 1077.5 ± 1.4
283.15 K, 33429 kPa | 1077.5 ± 1.4
283.15 K, 33473 kPa | 1077.6 ± 1.4
283.15 K, 33511 kPa | 1077.5 ± 1.4
283.15 K, 33548 kPa | 1077.5 ± 1.4
283.15 K, 33586 kPa | 1077.6 ± 1.4
283.15 K, 33631 kPa | 1077.7 ± 1.4
283.15 K, 33670 kPa | 1077.7 ± 1.4
283.15 K, 33708 kPa | 1077.7 ± 1.4
283.15 K, 33754 kPa | 1077.7 ± 1.4
283.15 K, 33792 kPa | 1077.6 ± 1.4
283.15 K, 33838 kPa | 1077.7 ± 1.4
283.15 K, 33878 kPa | 1077.8 ± 1.4
283.15 K, 33917 kPa | 1077.8 ± 1.4
283.15 K, 34179 kPa | 1077.9 ± 1.4
283.15 K, 34232 kPa | 1078 ± 1.4
283.15 K, 34278 kPa | 1078 ± 1.4
283.15 K, 34325 kPa | 1078 ± 1.4
283.15 K, 34380 kPa | 1078.1 ± 1.4
283.15 K, 34408 kPa | 1078.1 ± 1.4
283.15 K, 34413 kPa | 1078.1 ± 1.4
283.15 K, 34443 kPa | 1078.1 ± 1.4
283.15 K, 34447 kPa | 1078.3 ± 1.4
283.15 K, 34450 kPa | 1078 ± 1.4
283.15 K, 34451 kPa | 1078 ± 1.4
283.15 K, 34455 kPa | 1078.1 ± 1.4
283.15 K, 34530 kPa | 1078.2 ± 1.4
283.15 K, 34544 kPa | 1078.1 ± 1.4
283.15 K, 34545 kPa | 1078.1 ± 1.4
283.16 K, 104.2 kPa | 1059 ± 1.3
283.16 K, 104.7 kPa | 1059.1 ± 1.3
283.16 K, 105.7 kPa | 1059 ± 1.3
283.16 K, 107.3 kPa | 1059 ± 1.3
283.16 K, 108.9 kPa | 1059.1 ± 1.3
283.16 K, 113.9 kPa | 1059 ± 1.3
283.16 K, 119.6 kPa | 1059.1 ± 1.3
283.16 K, 129.7 kPa | 1059 ± 1.3
283.16 K, 145 kPa | 1059.2 ± 1.3
283.16 K, 173.9 kPa | 1059.1 ± 1.3
283.16 K, 201.7 kPa | 1059.2 ± 1.3
283.16 K, 220.1 kPa | 1059.2 ± 1.3
283.16 K, 241.7 kPa | 1059.2 ± 1.3
283.16 K, 261.3 kPa | 1059.2 ± 1.3
283.16 K, 284.4 kPa | 1059.2 ± 1.3
283.16 K, 305.4 kPa | 1059.2 ± 1.3
283.16 K, 329.3 kPa | 1059.3 ± 1.3
283.16 K, 363.7 kPa | 1059.2 ± 1.3
283.16 K, 391.3 kPa | 1059.1 ± 1.9
283.16 K, 432.3 kPa | 1059.2 ± 1.3
283.16 K, 466.5 kPa | 1059.2 ± 1.3
283.16 K, 498.2 kPa | 1059.2 ± 1.3
283.16 K, 527.5 kPa | 1059.2 ± 1.3
283.16 K, 550.1 kPa | 1059.3 ± 1.3
283.16 K, 577.4 kPa | 1059.3 ± 1.3
283.16 K, 602.2 kPa | 1059.4 ± 1.3
283.16 K, 628.6 kPa | 1059.3 ± 1.3
283.16 K, 657.3 kPa | 1059.4 ± 1.3
283.16 K, 694.8 kPa | 1059.2 ± 1.3
283.16 K, 725.1 kPa | 1059.3 ± 1.3
283.16 K, 756.3 kPa | 1059.4 ± 1.3
283.16 K, 786.4 kPa | 1059.4 ± 1.3
283.16 K, 816.8 kPa | 1059.4 ± 1.3
283.16 K, 854 kPa | 1059.4 ± 1.3
283.16 K, 886.5 kPa | 1059.4 ± 1.3
283.16 K, 919.6 kPa | 1059.5 ± 1.3

Source: the NIST ThermoML archive (doi:10.1021/je060271a)
